This is an account of results in patent EP0419676B1, “THIONAPHTHALENE DERIVATIVES, METHOD OF PRODUCING THE SAME, AND ANTIALLERGIC AGENT CONTAINING THE SAME” (TEIJIN LIMITED, priority 1989, dated 1990).

Each structure is given as a SMILES string. Where two headings read alike, the source gives them in different places.

For assay [1], the system named is anti-TNP IgE antibody production. The assay can be described thus: IgE antibody production suppressive effect: anti-TNP IgE production by cultured spleen cells of TNP-KLH-immunized mouse. The class given is cell-based, BALB/C mouse. How it is done:
An 8 weeks old BALB/C mouse (♀) was immunized by an intraperitoneal injection of 10 µg of TNP-KLH (trinitrophenyl-key hole limpet hemocyanine) and 2 mg of aluminum hydroxide gel, and after 3 weeks, 1 µg of TNP-KLH and 2 mg of aluminum hydroxide gel were boosted, and 4 weeks later, the spleen was enucleated.
The spleen cells (6 x 10⁶) were cultured together with 10 ng/ml of TNP-KLH, in the presence or non-presence of the compound of the present invention (10⁻⁵ to 10⁻⁷ M), in 1 ml of RPMI-1640 medium (containing 10% fetal bovine serum) for 2 days, followed by washing to remove the antigen and the drug, and the washed cells were resuspended in a fresh medium containing no antigen and further cultured for 5 days. All cultivations were performed under 5% CO₂ at 37°C. After completion of the culturing, the supernatant was recovered, and the concentration of anti-TNP IgE or anti-TNP IgG antibody was determined by an antigen and isotype specific immunoassay. […]
The values in the brackets ( ) indicate the values of the spontaneous IgE production amount observed when TNP-KLH was not added, and represent the IgE production dependency on the antigen.
The same experimental methods were used for the compounds shown below, and IgE antibody production suppressive effects were evaluated. […] (Exemplary compound VI - (1)): methyl (6,7-dimethoxy-2-naphthylthio)acetate (Exemplary compound V - (4)): N-(2-methoxycarbonylphenyl)-(6,7-dihydroxy-2-naphthylthio)acetamide (Exemplary compound V - (2)): N-tetrazolyl(6,7-dihydroxy-2-naphthylthio)acetamide Table 2

For assay [2], the system named is Rat homologous PCA reaction. The assay can be described thus: Rat homologous PCA reaction. The class given is in vivo, Sprague-Dawley strain male rat. As to conditions: p.o., 1 hour before antigen. The method, then: The back of a Sprague-Dawley strain male rat (6 - 8 w) was depilated, and at one site on both sides thereof, 0.1 ml of a rat anti-ovalbumin IgE serum diluted with physiological saline was intradermally injected under ether anesthesia. After 48 hours, 25 mg/kg of ovalbumin, 25 mg/kg of Evans Blue were intravenously administered to induce the PCA reaction, and after 30 minutes, the skin was peeled off, dipped in a mixture of 0.3% Na₂SO₄·10H₂O/Acetate (3:7), and the dye amount infiltrated was quantitated by absorbance at 620 nm. The drug listed in Table 4 was suspended in 5% gum arabic solution and orally administered 1 hour before the antigen administration.

Assay [3] has as its system peritoneal mast cells of rat. The assay can be described thus: Histamine release from peritoneal mast cells induced by Compound 48/80 (non-allergic release). The class given is cell-based, Sprague-Dawley strain male rat. As to conditions: 10⁻⁵ M, Compound 48/80 0.5 µg/ml; for inhibition at 10 µM: Rattus norvegicus, Mast cell, 10 min, read-out: Inhibitory ratio (%) histamine release. The method, then:
To a Sprague-Dawley strain male rat (10 weeks or older) was intraperitoneally administered, under ether anesthesia, a diluted rat anti-DNP-As IgE serum at 2 ml/kg. After 16 hours, cells were recovered by washing intraperitoneally with a Tyrode solution containing 0.5% heparin (Ca⁺⁺, Mg⁺⁺, free). Mast cells (5 x 10⁴) separated by overlying in the 30% Ficoll/Tyrode solution and centrifugation were reliberated into the Tyrode solution (Ca⁺⁺, Mg⁺⁺) and incubated with the addition of the drug solution shown in Table 3-1, for 10 minutes, and then DNP-As and phosphatidylserine were added to final concentrations of 20 µg/ml and 25 µg/ml, respectively, followed by incubation for 10 minutes. The reaction was stopped by ice-cooling, and the histamine release in the supernatant was determined by fluorophotometry. Regarding the non-allergy release, 5 x 10⁴ of mast cells were investigated by incubation with 0.5 µg/ml of Compound 48/80 for 10 minutes, after the addition of the drug solution shown in Table 3-2.

For a further assay, the target named is T1, Lipoxygenase (Homo sapiens, UniProt P09917).
T1 construct: heparin-treated vein blood of a healthy person; from tissue; host or cells: human heparinised venous whole blood (leukocytes)
T1 sequence (P09917 1-674): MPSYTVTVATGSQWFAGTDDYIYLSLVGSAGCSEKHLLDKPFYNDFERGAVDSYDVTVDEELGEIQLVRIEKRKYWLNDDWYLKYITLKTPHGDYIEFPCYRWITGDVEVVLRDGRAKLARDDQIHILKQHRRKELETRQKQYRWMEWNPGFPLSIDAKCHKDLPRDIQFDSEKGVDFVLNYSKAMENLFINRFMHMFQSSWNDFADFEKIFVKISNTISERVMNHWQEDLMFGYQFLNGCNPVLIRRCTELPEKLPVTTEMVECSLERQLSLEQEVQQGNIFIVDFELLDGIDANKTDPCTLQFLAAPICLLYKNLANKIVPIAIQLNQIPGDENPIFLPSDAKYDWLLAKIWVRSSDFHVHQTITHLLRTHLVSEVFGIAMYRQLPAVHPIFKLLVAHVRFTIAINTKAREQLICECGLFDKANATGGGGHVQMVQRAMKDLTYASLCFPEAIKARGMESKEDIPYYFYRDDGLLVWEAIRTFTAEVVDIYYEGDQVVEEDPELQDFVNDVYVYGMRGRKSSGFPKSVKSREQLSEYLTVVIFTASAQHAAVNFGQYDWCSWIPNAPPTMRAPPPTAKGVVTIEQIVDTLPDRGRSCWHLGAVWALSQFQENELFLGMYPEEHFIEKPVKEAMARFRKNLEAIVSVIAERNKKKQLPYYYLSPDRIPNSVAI
The assay can be described thus: Lipoxygenase inhibitory activity evaluation: LTB4 and 5-HETE production in A23187-stimulated whole blood. The class given is cell-based, healthy man. The settings on record: 10⁻⁵ M, A23187 25 µM; for Amount of LTB₄ produced: no addition 125; for Amount of 5-HETE produced: no addition 130. How it is done: To 1 ml of heparin-treated vein blood of a healthy person without an administration of drugs was added 1 µl of a DMSO solution of the drug test sample listed in Table 5 (final 10⁻⁵ M), and after treatment at 37°C for 5 minutes, 5 µl of a DMSO solution of A23187 was added (final 25 µM) and the treatment carried out at 37°C for 15 minutes, followed by ice-cooling. After the addition of 10 µl of a DMSO solution of 100 ng of 15-HETE as the internal standard substance for quantitation, 0.8 ml of acetonitrile was added, and the precipitates formed were removed by centrifugation. Then, LTB₄ and 5-HETE in the supernatant were subjected to HPLC separation and quantitation (ref. F.J. Sweeney, et al., Prostaglandins Leukotrienes & Med., 28, 73 (1987)).

Regarding `O=C(CSc1ccc2cc(O)c(O)cc2c1)Nc1nnn[nH]1` [Exemplary compound V-(2), N-5-tetrazolyl(6,7-dihydroxy-2-naphthylthio)-acetamide], in assay [1] (10⁻⁷ M), the “Suppressive ratio (IgE antibody production)” value was found to be 11%. For the same compound, the “Suppressive ratio (%) Experiment 1” value in assay [2] (25 mg/kg) is -0.3%. Moreover, the inhibition at 10 µM in assay [3] (Experiment 1) was 2.2%.

Regarding `O=C(CSc1ccc2cc(O)c(O)cc2c1)Nc1ccccc1C(=O)O` [Exemplary compound V-(3), N-(2-carboxyphenyl)(6,7-dihydroxy-2-naphthylthio)acetamide], the “Suppressive ratio (%) Experiment 1” value in assay [2] (25 mg/kg) is -18.0%. Moreover, in assay [3] (Experiment 1), the inhibition at 10 µM turned out to be 1.3%.

With `COC(=O)c1ccccc1NC(=O)CSc1ccc2cc(O)c(O)cc2c1` [Exemplary compound V-(4), N-(2-methoxycarbonylphenyl)(6,7-dihydroxy-2-naphthylthio)acetamide], the entries for the “Suppressive ratio (IgE antibody production)” value in assay [1] (10⁻⁶ M) and in assay [1] (10⁻⁷ M) were 7% and 26%, respectively. Besides, the “Suppressive ratio (%) Experiment 1” value in assay [2] (25 mg/kg) stood at 0%. The inhibition at 10 µM in assay [3] (Experiment 1) was -0.8%.

In the case of `O=C(CSc1ccc2cc(O)c(O)cc2c1)Nc1ccccc1-c1nnn[nH]1` [Exemplary compound V-(5), N-[2-(5-tetrazolyl)phenyl](6,7-dihydroxy-2-naphthylthio)acetamide], the “Suppressive ratio (%) Experiment 2” value in assay [2] (25 mg/kg) worked out at 16.5%. Moreover, in assay [3] (Experiment 1), the inhibition at 10 µM was determined as 28.1%.

For `O=C(CSc1ccc2cc(O)c(O)cc2c1)NCCCCN1CCN(C(c2ccc(F)cc2)c2ccc(F)cc2)CC1` [Exemplary compound V-(6), 1-[4-[(6,7-dihydroxy-2-naphthylthio)acetylamino]-butyl]-4-[bis(4-fluorophenyl)methyl]piperazine], in assay [2] (25 mg/kg), the “Suppressive ratio (%) Experiment 2” value was 15.9%. Further, the inhibition at 10 µM in assay [3] (Experiment 1) stood at 5.9%.

Regarding `COC(=O)CSc1ccc2cc(OC)c(OC)cc2c1` [Exemplary compound VI-(1), Methyl (6,7-dimethoxy-2-naphthylthio)acetate], the “Suppressive ratio (IgE antibody production)” value in assay [1] (10⁻⁶ M) stood at 69%. In addition, the inhibition at 10 µM in assay [3] (Experiment 2) was 3.7%.

Consider `COC(=O)CSc1ccc2cc(OC(C)=O)c(OC(C)=O)cc2c1` [Exemplary compound VI-(2), Methyl (6,7-diacetoxy-2-naphthyithio)acetate], for which the “Inhibitory ratio (%) histamine release” value in assay [3] (Experiment 2) was found to be 2.6%.

For `COC(=O)CSc1ccc2cc(OC(=O)OC)c(OC(=O)OC)cc2c1` [Exemplary compound VI-(3), Methyl (6,7-dimethoxycarbonyloxy-2-naphthylthio)acetate], the inhibition at 10 µM in assay [3] (Experiment 2) worked out at 7.5%.

Regarding `COC(=O)CSc1ccc2cc(OC(=O)OC(C)C)c(OC(=O)OC(C)C)cc2c1` [Exemplary compound VI-(4), Methyl (6,7-diisopropoxycarbonyloxy-2-naphthylthio)acetate], in assay [3] (Experiment 2), the inhibition at 10 µM came to 17.8%.

For the compound `COC(=O)C(C)Sc1ccc2cc(O)c(O)cc2c1` (centres unmarked) [Exemplary compound VII-(1), Methyl 2-(6,7-dihydroxy-2-naphthylthio)-propionate], on Lipoxygenase, the “5-HETE (Inhibitory ratio %)” value is recorded as 69%, the “LTB₄ (Inhibitory ratio %)” value amounted to 72%, the “Amount of LTB₄ produced” value is given as 35 ng/ml/plasma and the “Amount of 5-HETE produced” value stood at 40 ng/ml/plasma.

In the case of `Oc1cc2ccc(SCc3ccccc3)cc2cc1O` [II-(1)], at Lipoxygenase, the “5-HETE (Inhibitory ratio %)” value is 66%, the “LTB₄ (Inhibitory ratio %)” value came to 76%, the “Amount of LTB₄ produced” value is on record as 30 ng/ml/plasma and the “Amount of 5-HETE produced” value was 45 ng/ml/plasma.

Turning to `COc1ccc(/C=C/C(=O)Nc2ccccc2C(=O)O)cc1OC` [Tranilast, reference compound], in assay [2] (200 mg/kg), the “Suppressive ratio (%) Experiment 1” value was determined as 24.2% and the “Suppressive ratio (%) Experiment 2” value is on record as 26.9%. In addition, the inhibition at 10 µM in assay [3] (Experiment 1) amounted to 24.4%.
